From ChEMBL document CHEMBL5033994, “Fragment-Based Optimization of Dihydropyrazino-Benzimidazolones as Metabotropic Glutamate Receptor-2 Positive Allosteric Modulators against Migraine” (J Med Chem, 2021)
≈ marks a conversion by molar mass, not a printed value.

Assays:
[1] = physchem; settings: buffer, pH 7.4
[2] = in vivo; settings: Wistar, rat, iv, 3 mg/kg
[3] = in vivo; settings: Wistar, rat, po, 10 mg/kg
[4] = in vivo; settings: Wistar, rat, iv, 3 mg/kg; remark: listed apart in the source
[5] = physchem; settings: buffer, pH 7.4; remark: listed apart in the source
[6] = in vivo; settings: Wistar, rat, iv, 3 mg/kg; remark: listed apart in the source
[7] = in vivo; settings: Wistar, rat, brain/plasma, po, 10 mg/kg
[8] = in vivo; settings: Wistar, rat, po, 10 mg/kg; remark: listed apart in the source
[9] = in vivo; settings: Wistar, rat, po, 10 mg/kg; remark: listed apart in the source
[10] = in vivo; settings: Wistar, rat, po, 10 mg/kg; remark: listed apart in the source
[11] = in vivo; settings: Wistar, rat, po, 10 mg/kg; remark: listed apart in the source

solubility [1]: 43 µg/mL (≈ 133 µM)
AUC(0-t) at 2 h [2]: 833 ng·h/mL
Cmax [3]: 1360 ng/mL
half-life [4]: 15.6 min
logD [5]: 3.09
clearance [6]: 60 mL/min/kg
Kp [7]: 1.02
AUC(0-t) at 5 h [8]: 1820 ng·h/mL
bioavailability [9]: 67%
Tmax [10]: 30 min
half-life [11]: 54.6 min
SMILES: O=C1c2nc3cccc(C(F)(F)F)c3n2CCN1CC1CCC1
